Experimental data reported in PubChem BioAssay AID248 (DTP/NCI, 2004).
Inconclusive results and toxic doses are left out.

System: L1210 leukemia ip in BDF1 mice, survival T/C
Assay: NCI In Vivo Anticancer Drug Screen. Data for tumor model L1210 Leukemia (intraperitoneal) in B6D2F1 (BDF1) mice
Settings: endpoint: mean survival time, higher = longer survival
Outline: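 Ratio derived from survival: compound-dosed mice over vehicle-dosed mice, all bearing a transplantable tumor.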

[1] = dose: 50.0 mg/kg/injection, schedule: Q01DX001 (ip), vehicle: saline
[2] = dose: 100.0 mg/kg/injection, schedule: Q01DX001 (ip), vehicle: saline
[3] = dose: 200.0 mg/kg/injection, schedule: Q01DX001 (ip), vehicle: saline
[4] = dose: 400.0 mg/kg/injection, schedule: Q01DX001 (ip), vehicle: saline
[5] = dose: 100.0 mg/kg/injection, schedule: Q04DX003 (ip), vehicle: saline
[6] = dose: 200.0 mg/kg/injection, schedule: Q04DX003 (ip), vehicle: saline
[7] = dose: 400.0 mg/kg/injection, schedule: Q04DX003 (ip), vehicle: saline
[8] = dose: 100.0 mg/kg/injection, schedule: Q04DX002 (ip), vehicle: Klucel (hydroxypropylcellulose) (HPC)
[9] = dose: 200.0 mg/kg/injection, schedule: Q04DX002 (ip), vehicle: Klucel (hydroxypropylcellulose) (HPC)
[10] = dose: 400.0 mg/kg/injection, schedule: Q04DX002 (ip), vehicle: Klucel (hydroxypropylcellulose) (HPC)
[11] = dose: 100.0 mg/kg/injection, schedule: Q04DX003 (ip), vehicle: Klucel (hydroxypropylcellulose) (HPC)
[12] = dose: 200.0 mg/kg/injection, schedule: Q04DX003 (ip), vehicle: Klucel (hydroxypropylcellulose) (HPC)
[13] = dose: 400.0 mg/kg/injection, schedule: Q04DX003 (ip), vehicle: Klucel (hydroxypropylcellulose) (HPC)
[14] = dose: 100.0 mg/kg/injection, schedule: Q01DX009 (ip), vehicle: Klucel (hydroxypropylcellulose) (HPC)
[15] = dose: 100.0 mg/kg/injection, schedule: Q01DX009 (ip), vehicle: saline
[16] = dose: 200.0 mg/kg/injection, schedule: Q01DX009 (ip), vehicle: saline
[17] = dose: 400.0 mg/kg/injection, schedule: Q01DX009 (ip), vehicle: saline
[18] = dose: 200.0 mg/kg/injection, schedule: Q01DX009 (ip), vehicle: Klucel (hydroxypropylcellulose) (HPC)
[19] = dose: 400.0 mg/kg/injection, schedule: Q01DX009 (ip), vehicle: Klucel (hydroxypropylcellulose) (HPC)

N#Cc1cnc(N)c(C#N)c1
T/C (dose: 74.0 mg/kg/injection, schedule: Q01DX009 (ip), vehicle: Klucel (hydroxypropylcellulose) (HPC)): 98 % of control | T/C (dose: 150.0 mg/kg/injection, schedule: Q01DX009 (ip), vehicle: Klucel (hydroxypropylcellulose) (HPC)): 100 % of control

CCC/C=N/Nc1ccnc(SC)n1
T/C (dose: 100.0 mg/kg/injection, schedule: Q01DX009 (ip), vehicle: gum acacia): 97 % of control

Nc1c(Cl)ncnc1Nc1cccc(C(=O)O)c1
T/C [1]: 98 % of control | T/C [2]: 108 % of control | T/C [3]: 102 % of control | T/C [4]: 93 % of control

CCOC(=O)C1CN(Cc2ccccc2)CCC1=O (centres undefined)
T/C [5]: 103 % of control | T/C [6]: 106 % of control | T/C [7]: 100 % of control

O=C(O)C1OC1C(=O)O (centres undefined)
T/C (dose: 75.0 mg/kg/injection, schedule: Q01DX009 (ip), vehicle: saline with Tween-80): 101 % of control | T/C (dose: 75.0 mg/kg/injection, schedule: Q04DX003 (ip), vehicle: saline): 100 % of control | T/C (dose: 150.0 mg/kg/injection, schedule: Q01DX009 (ip), vehicle: saline with Tween-80): 103 % of control | T/C (dose: 150.0 mg/kg/injection, schedule: Q04DX003 (ip), vehicle: saline): 98 % of control | T/C (dose: 300.0 mg/kg/injection, schedule: Q01DX009 (ip), vehicle: saline with Tween-80): 95 % of control | T/C (dose: 300.0 mg/kg/injection, schedule: Q04DX003 (ip), vehicle: saline): 100 % of control

O=S(=O)(O)c1cc(I)c(O)c2ncccc12
T/C [8]: 102 % of control | T/C [9]: 95 % of control | T/C [10]: 95 % of control

S=P(N1CCOCC1)(N1CCOCC1)N1CCOCC1
T/C [8]: 103 % of control | T/C [9]: 89 % of control | T/C [10]: 113 % of control

CCCCCCCCCCCCc1cc2ccccc2c2ccccc12
T/C [2]: 98 % of control | T/C [3]: 95 % of control | T/C [4]: 89 % of control

C=CCCCCCCCCCNc1cc2c3c(c1)CCCN3CCC2
T/C (dose: 0.19 mg/kg/injection, schedule: Q01DX003 (ip), vehicle: saline): 90 % of control | T/C (dose: 0.19 mg/kg/injection, schedule: Q01DX009 (ip), vehicle: saline): 108 % of control | T/C (dose: 0.39 mg/kg/injection, schedule: Q01DX003 (ip), vehicle: saline): 98 % of control | T/C (dose: 0.39 mg/kg/injection, schedule: Q01DX009 (ip), vehicle: saline): 98 % of control | T/C (dose: 0.78 mg/kg/injection, schedule: Q01DX003 (ip), vehicle: saline): 101 % of control

COc1ccc(-c2cc(C(=O)N/N=C/c3ccc([N+](=O)[O-])cc3)c3ccc(C)cc3n2)cc1OC
T/C (dose: 200.0 mg/kg/injection, schedule: Q04DX003 (ip), vehicle: saline with Tween-80): 86 % of control | T/C (dose: 400.0 mg/kg/injection, schedule: Q04DX003 (ip), vehicle: saline with Tween-80): 94 % of control

O=[N+]([O-])c1ccc(/C=C/c2ncccn2)o1
T/C [11]: 97 % of control | T/C [12]: 103 % of control | T/C [13]: 97 % of control

CS(=O)(=O)Oc1cc(=O)oc2ccccc12
T/C (dose: 50.0 mg/kg/injection, schedule: Q01DX009 (ip), vehicle: Klucel (hydroxypropylcellulose) (HPC)): 103 % of control | T/C [14]: 109 % of control

Cn1c(=O)cc(C=Nc2ccc(N=Nc3ccccc3)cc2)c2ccccc21
T/C [2]: 94 % of control | T/C [3]: 96 % of control | T/C [4]: 87 % of control

COc1ccc(CCNC2C3CC4CC(C3)CC2C4)cc1OC (centres undefined)
T/C [5]: 94 % of control

O=C(O)CCS
T/C [1]: 98 % of control

CCCCCCCCC(C)NCCO (centres undefined)
T/C (dose: 9.5 mg/kg/injection, schedule: Q01DX001 (ip), vehicle: saline): 96 % of control | T/C (dose: 19.0 mg/kg/injection, schedule: Q01DX001 (ip), vehicle: saline): 93 % of control | T/C (dose: 38.0 mg/kg/injection, schedule: Q01DX001 (ip), vehicle: saline): 90 % of control

COC(=O)c1[nH]cnc1/N=N\N(CCF)CCF
T/C (dose: 1.5 mg/kg/injection, schedule: Q01DX009 (ip), vehicle: carboxymethylcellulose (CMC)): 120 % of control | T/C (dose: 3.0 mg/kg/injection, schedule: Q01DX009 (ip), vehicle: carboxymethylcellulose (CMC)): 110 % of control | T/C (dose: 4.5 mg/kg/injection, schedule: Q01DX001 (ip), vehicle: carboxymethylcellulose (CMC)): 102 % of control | T/C (dose: 5.0 mg/kg/injection, schedule: Q01DX001 (ip), vehicle: carboxymethylcellulose (CMC)): 101 % of control | T/C (dose: 9.0 mg/kg/injection, schedule: Q01DX001 (ip), vehicle: carboxymethylcellulose (CMC)): 112 % of control | T/C (dose: 10.0 mg/kg/injection, schedule: Q01DX001 (ip), vehicle: carboxymethylcellulose (CMC)): 115 % of control | T/C (dose: 12.0 mg/kg/injection, schedule: Q01DX009 (ip), vehicle: carboxymethylcellulose (CMC)): 91 % of control | T/C (dose: 14.4 mg/kg/injection, schedule: Q01DX009 (ip), vehicle: carboxymethylcellulose (CMC)): 169 % of control | T/C (dose: 18.0 mg/kg/injection, schedule: Q01DX009 (ip), vehicle: carboxymethylcellulose (CMC)): 95 % of control | T/C (dose: 40.0 mg/kg/injection, schedule: Q01DX009 (ip), vehicle: carboxymethylcellulose (CMC)): 97 % of control | T/C (dose: 53.0 mg/kg/injection, schedule: Q01DX001 (ip), vehicle: carboxymethylcellulose (CMC)): 154 % of control | T/C (dose: 80.0 mg/kg/injection, schedule: Q01DX001 (ip), vehicle: carboxymethylcellulose (CMC)): 171 % of control

Nc1ccc2nc[nH]c2c1
T/C [15]: 98 % of control | T/C [5]: 101 % of control | T/C [16]: 95 % of control | T/C [6]: 104 % of control | T/C [17]: 87 % of control | T/C [7]: 102 % of control

CCCCCCCCCCN1C(=O)c2ccccc2S1(=O)=O
T/C [15]: 95 % of control | T/C [5]: 97 % of control | T/C [16]: 97 % of control | T/C [6]: 100 % of control | T/C [17]: 97 % of control | T/C [7]: 95 % of control

Cc1cc(CCl)c(C)cc1CCl
T/C (dose: 25.0 mg/kg/injection, schedule: Q04DX003 (ip), vehicle: saline with Tween-80): 96 % of control | T/C (dose: 50.0 mg/kg/injection, schedule: Q04DX003 (ip), vehicle: saline with Tween-80): 90 % of control

O=C(NCCBr)c1cccc2ccccc12
T/C [14]: 106 % of control | T/C [18]: 97 % of control | T/C [19]: 95 % of control

COc1cc(C)c(Cl)c(C)c1C(C)=O
T/C [14]: 101 % of control | T/C [11]: 95 % of control | T/C [18]: 100 % of control | T/C [12]: 101 % of control | T/C [19]: 101 % of control | T/C [13]: 97 % of control

O=C1c2ccccc2C(=O)N1CCCCCN1C(=O)c2ccccc2C1=O
T/C (dose: 100.0 mg/kg/injection, schedule: Q01DX001 (ip), vehicle: saline with Tween-80): 102 % of control | T/C (dose: 100.0 mg/kg/injection, schedule: Q04DX002 (ip), vehicle: saline with Tween-80): 104 % of control | T/C (dose: 200.0 mg/kg/injection, schedule: Q01DX001 (ip), vehicle: saline with Tween-80): 96 % of control | T/C (dose: 200.0 mg/kg/injection, schedule: Q04DX002 (ip), vehicle: saline with Tween-80): 96 % of control | T/C (dose: 400.0 mg/kg/injection, schedule: Q01DX001 (ip), vehicle: saline with Tween-80): 98 % of control | T/C (dose: 400.0 mg/kg/injection, schedule: Q04DX002 (ip), vehicle: saline with Tween-80): 101 % of control

CCCCCCCC(=O)N1C(C)CCCC1C (centres undefined)
T/C (dose: 100.0 mg/kg/injection, schedule: Q04DX002 (ip), vehicle: saline): 114 % of control | T/C (dose: 200.0 mg/kg/injection, schedule: Q04DX002 (ip), vehicle: saline): 111 % of control | T/C (dose: 400.0 mg/kg/injection, schedule: Q04DX002 (ip), vehicle: saline): 104 % of control
